This assay has as its system IGF-IRβ, pS6 in wild-type cortical neurons. Nature of the assay: Proteasomal inhibition experiment, Western blot in wild-type cortical neurons. Particulars: 100 nM bortezomib with 4 μM 17-AGG. The class given is cell-based, rat.

Protocol: Hippocampi and cortexes from 18-day-old rat embryos (Charles River CD1) were isolated under the microscope and collected in Hank's Balanced Salt Solution containing 10 mM MgCl2, 1 mM kynurenic acid, 10 mM HEPES and penicillin/streptomycin. After 5 min dissociation at 37° C. in 30 U/ml of papain, neurons were mechanically triturated and plated in Neurobasal (NB) medium containing B27 supplement, 2 mM L-glutamine, penicillin/streptomycin and primocin (NB/B27). Biochemical analysis was performed on cortical cultures plated at 1×10^6 cells/well onto six-well plates. Immunofluorescent analysis was performed on hippocampal cultures plated at 20×10^3 cells/well onto 96-well plates. All plates were coated with 20 μg/ml poly-D-lysine (PDL).
Stocks of drugs were freshly diluted in NB media before performing each experiment. The same amount of vehicle was used as vehicle-only control. For dose response curves serial dilutions were freshly made in NB media by a manual multichannel pipette using compound dilution plates.
Protein extracts were lysed in 1×SDS (22 mM Tris-HCl pH 6.8, 4% Glycerol, 0.8% SDS, 1.6% β-mercaptoethanol, bromphenol blue) sample buffer, heated to 95° C. for 5 min and stored frozen. Before being subjected to discontinuous gel electrophoresis, equal amounts of all protein lysates were verified by Coomassie gel staining. For immunoblotting, equal amounts of protein lysates were subjected to SDS-PAGE, transferred to Immobilon-P Millipore and incubated in LI-COR blocking solution at RT for 2 hrs. Primary and secondary antibodies were diluted in LI-COR blocking solution to the appropriate concentrations. LI-COR IRDye secondary antibodies were used. All images were acquired using the LI-COR Odyssey Classic imager and associated Image Studio Lite analysis software (version 5.2.5). Quantification of protein expression was performed by densitometry scans of immunoblots using LI-COR Odyssey imaging system.

Take `CC(C)C[C@H](NC(=O)[C@H](Cc1ccccc1)NC(=O)c1cnccn1)B(O)O` [BTZ, bortezomib]: the “reduction in S6 phosphorylation caused by 17-AGG” value is “prevented” and the “reduction of IGF-IRβ levels caused by 17-AGG” value is reported as “prevented”.

The record behind these values is patent US20230218577A1, “USE OF HEAT SHOCK PROTEIN INHIBITORS FOR THE TREATMENT OF NEURODEVELOPMENTAL DISORDERS” (The Children's Medical Center Corporation, priority 2020, published 2023).
